Measured values from patent publication US20100279942A1, “METHODS FOR TREATING MOTOR NEURON DISEASE” (priority 2004, published 2010).

Assays:
[1] = tested on: F11 cells transformed with SOD1 mutant (A4T-SOD1, G85R-SOD1, G93R-SOD1) genes; assay: Neuronal cell death test, Trypan blue exclusion assay, F11 cells transformed with SOD1 mutant genes; type: cell-based, rat/mouse hybrid cell; settings: for effect of kinase inhibitor on neuroprotective effect of ADNF: 100 nM ADNF, 10 nM wortmannin, 100 μM genistein, 50 μM PD98059, 20 μM SB203580, 1 μM AG490, 5 μM KN93, 10 μM HA1004, 72 hours
Experimental: F11 cell, the hybrid cell of rat embryonic day 13 (E13) primary cultured neuronal cell with mouse neuroblastoma NTG18 cell, was cultured in Ham's F-12 medium (Life Technologies, Gaithersburg, Md.) containing 18% FBS (Hyclone, Logan, Utah) and antibiotics as previously reported (Platika D, et al., 1985, Proc Natl Acad Sci USA 82: 3499-3503; Yamatsuji T, et al., 1996, Science 272: 1349-1352; Huang P, et al., 2000, Mol Hum Reprod 6: 1069-1078; and Niikura T, et al., 2001, J Neuroscience, 21: 1902-1910).
The F11 cells (7×10^4 cells/well, 6-well plate, 12- to 16-hour culture in Ham's F-12 (18% PBS) medium) were transformed with wild-type or SOD1 mutant (A4T, G85R, and G93R) genes by lipofection (0.5 μg of each SOD1 gene; 1 μl of LipofectAMINE; 2 μl of PLUS Reagent) under serum-free conditions for 3 hours and cultured for 2 hours in Ham's F-12 (18% PBS) medium. The medium was replaced by Ham's F-12 (10% PBS) in the presence or absence of ADNF. After 72 hours of the transformation, cell mortality was measured by Trypan blue exclusion assay as previously reported (Hashimoto Y, et al., 2001, J Neurosci 21: 9235-9245; and Hashimoto Y, et al, 2001, Proc Natl Acad Sci USA 98: 6336-6341). […]
Intracellular signaling by ADNF was examined. F11 cells were transformed with pEF-BOS or SOD1 mutant (A4T-SOD1, G85R-SOD1, or G93R-SOD1) cDNA and reacted with 10 nM wortmannin (PI3 kinase inhibitor), 100 μM genistein (tyrosine kinase inhibitor), 50 μM PD98059 (MEK inhibitor), 20 μM SB203580 (p38 MAPK inhibitor), 1 μM AG490 (JAK kinase inhibitor), 5 μM KN93 (calcium/calmodulin-dependent kinase inhibitor), or 10 μM HA1004 (protein kinase A inhibitor) in the presence or absence of 100 nM ADNF. After 72 hours of the transformation, cell mortality was measured by Trypan blue exclusion assay.
The effect of KN93 on the neuroprotective action of ADNF was examined. […] After 72 hours of the transformation, cell mortality was measured by Trypan blue exclusion assay. […]

[2] = tested on: SOD1 proteins; assay: Immunoblot analysis of SOD1 protein expression in transformed cells; type: cell-based, mouse and rat/mouse hybrid; settings: KN93 or KN92 treatment; F11 cells
Experimental: Immunoblot analysis was conducted according to the previous report (Hashimoto Y, et al., supra, p. 6336-6341). To examine the protein expression of wild-type or SOD1 mutant genes, lysates from the cells transfected with each SOD1 gene were subjected to SDS-PAGE (20 μg/lane). After electrical blotting to a PVDF membrane, the membrane was blocked by a typical method and reacted with an anti-SOD1 antibody and then with a 1:5000-diluted horseradish peroxidase-conjugated anti-mouse IgG antibody (Bio-Rad Lab. Hercules, Calif., USA). The antibody-reactive bands were detected by ECL (Amersham Pharmacia Biotech, Uppsala, Sweden).

[3] = tested on: F11 cells transformed with SOD1 mutant (A4T-SOD1, G85R-SOD1, G93R-SOD1) genes; assay: Neuronal cell death test, Trypan blue exclusion assay, F11 cells transformed with SOD1 mutant genes; type: cell-based, rat/mouse hybrid cell; settings: 10 pM ADNF8, 72 hours
[4] = tested on: neuronal cell death caused by amyloid β; settings: cited from earlier work
[5] = tested on: neuronal cell death induced by SOD1 mutant genes; settings: Hashimoto et al.; cited from earlier work

Molecule: N#C/C(=C/c1ccc(O)c(O)c1)C(=O)NCc1ccccc1 [AG490]
- effect of kinase inhibitor on neuroprotective effect of ADNF [1]: not affected

Molecule: NC(N)=NCCNS(=O)(=O)c1cccc2cnccc12 [HA1004]
- effect of kinase inhibitor on neuroprotective effect of ADNF [1]: not affected

Molecule: COc1ccc(S(=O)(=O)Nc2ccccc2CN(C)C/C=C/c2ccc(Cl)cc2)cc1 [KN92]
- influence on ADNF activity ([1]; 5 μM KN92, 100 fM ADNF): did not influence ADNF activity
- protein expression of SOD1 mutant detected by immunoblot [2]: not affected

Molecule: COc1ccc(S(=O)(=O)N(CCO)c2ccccc2CN(C)C/C=C/c2ccc(Cl)cc2)cc1 [KN93]
- inhibition of neuroprotective action of ADNF ([1]; 50 nM KN93, 100 fM ADNF): partially inhibited
- effect of kinase inhibitor on neuroprotective effect of ADNF [1]: inhibited
- inhibition of neuroprotective action of ADNF ([1]; 1 μM KN93, 100 fM ADNF): almost completely inhibited
- influence on cell mortality at the control level ([1]; KN93 at any of the concentrations (10 nM to 5 μM)): no influence
- protein expression of SOD1 mutant detected by immunoblot [2]: not affected

Molecule: COc1cccc(-c2cc(=O)c3ccccc3o2)c1N [PD98059]
- effect of kinase inhibitor on neuroprotective effect of ADNF [1]: not affected

Molecule: C[S+]([O-])c1ccc(-c2nc(-c3ccncc3)c(-c3ccc(F)cc3)[nH]2)cc1 (stereo not shown) [SB203580]
- effect of kinase inhibitor on neuroprotective effect of ADNF [1]: not affected

Molecule: O=c1c(-c2ccc(O)cc2)coc2cc(O)cc(O)c12 [genistein]
- effect of kinase inhibitor on neuroprotective effect of ADNF [1]: inhibited

Molecule: ALLRSIPA [ADNF8, ADNF which lost one N-terminal amino acid residue]
- effectiveness relative to ADNF (fold less) ([1]; inhibition of neuronal cell death caused by SOD1 mutant genes): 100 fold
- inhibition of cell death caused by G93R-SOD1 [3]: completely inhibited cell death
- effect against neuronal cell death caused by amyloid β or TTX ([4]; Brenneman et al. 1998): totally ineffective

Molecule: IPALDSLKPANEDQKIGIEI [IPAL peptide]
- influence on cell death caused by SOD1 mutant genes ([1]; 10 μM IPAL peptide): did not influence the cell death caused by the SOD1 mutant genes
- influence on cell death at the control level ([1]; 10 μM IPAL peptide itself, pEF-BOS): did not influence the cell death at the control level
- effect on inhibitory activity of ADNF against cell death caused by SOD1 mutant genes ([1]; 10 μM IPAL peptide, 100 fM ADNF, 72 hours): did not inhibit the inhibitory activity of ADNF
- effect on protective effect of ADNF on cell death induced by amyloid β ([4]; Zamostiano et al. 1999): inhibit the protective effect of ADNF

Molecule: S14G Humanin (MAPRGFSCLLLLTGEIDLPVKRRA; Humanin; UniProt Q8IVG9 1-24, looked up, variant S14G) [HNG, comparison peptide reported to prevent Alzheimer's disease-associated neuronal cell death]
- cell mortality induced by SOD1 mutant genes ([1]; 10 nM HNG, A4T-, G85R-, G93R-SOD1, 72 hours): could not reduce the cell death induced by the SOD1 mutant genes
- neuronal cell death caused by some Alzheimer's disease-associated disorders ([4]; Hashimoto et al.): prevent neuronal cell death
- neuronal cell death induced by SOD1 mutant genes [5]: fail to prevent neuronal cell death
